From US6362166B1, “Antipicornaviral compounds and methods for their use and preparation” (Agouron Pharmaceuticals, Inc., priority 1996, dated 2002)
pEC50, pKi: −log10 of the molar value. Read-outs that look alike come from different tables or passages of the source.

Experiments:
[1] = molecular target: T1, Recombinant Rhinovirus 3C protease (RVP) serotype-14 (Human rhinovirus 14, UniProt P03303); assay: Inhibition of Rhinovirus Protease (fluorescence resonance energy transfer assay), serotype 14; format: biochemical, human rhinovirus (HRV); details: for kinact/KI: pH 7.6, read-out: kobs/I; for kobs/I: progress curves in enzyme start experiments
T1 construct: Recombinant Rhinovirus 3C proteases from serotypes 14, 16, 2 or 89; made in house
Experimental: Stock solution (50 mM, in DMSO) of various compounds were prepared; dilutions were in the same solvent. […] Assays contained 2% DMSO, 50 mM tris pH 7.6, 1 mM EDTA, a compound at the indicated concentrations, approximately 1 μM substrate, and 50-100 nM protease. […] The kobs/I values were obtained from reactions initiated by addition of enzyme rather than substrate. RVP activity is measured in the fluorescence resonance energy transfer assay. […] In the uncleaved peptide, the EDANS fluorescence was quenched by the proximal DABCYL moeity. When the peptide was cleaved, the quenching was relieved, and activity was measured as an increase in fluorescence signal.
In the above table, all data is RVP serotype-14 unless otherwise noted in parentheses. All strains of human rhinovirus (HRV) were purchased from American Type Culture Collection (ATCC), except for serotype 14, which was produced from the infectious cDNA clone constructed and supplied to us by Dr. Roland Rueckert at the Institute for Molecular Virology, University of Wisconsin, Madison, Wisc. […] The data in the column designated kobs/I was measured from progress curves in enzyme start experiments.

HRV-14 = assay: Antirhinoviral HI-HeLa Cell Culture Assay (Cell Protection Assay, XTT dye reduction); format: cell-based, human rhinovirus (HRV) serotype-14; details: HI-HeLa cells infected with HRV-14, m.o.i. 0.13, two days, XTT, read-out: EC50
Experimental: In the Cell Protection Assay, the ability of compounds to protect cells against HRV infection was measured by the XTT dye reduction method. This method is described in Weislow, O. S., R. Kiser, D. L. Fine, J. Bader, R. H. Shoemaker, and M. R. Boyd, J. Natl. Cancer Inst. 1989, 81, 577-586, which is incorporated herein by reference.
(§1) HI-HeLa cells were infected with HRV-14 at a multiplicity of infection (m.o.i.) of 0.13 (virus particles/cell) or mock-infected with medium only. Infected or mock-infected cells were resuspended at 8×10^5 cells per mL and incubated with appropriate concentration of compounds of formulas I and II. Two days later, XTT/PMS was added to test plates and the amount of formazan produced was quantified spectrophotometrically at 450/650 nm. […] The therapeutic index (TI) was calculated by dividing the CC50 by the EC50.
(§2) All strains of human rhinovirus (HRV) for use in this assay were purchased from American Type Culture Collection (ATCC), except for HRV serotype-14, which was produced from the infectious cDNA clone, constructed and supplied to us by Dr. Roland Rueckert at the Institue for Molecular Virology, University of Wisconsin, Madison, Wisc. HRV stocks were propagated, and antiviral assays were perforemd in HI-HeLa cells (ATCC). Cells were grwon in Minimal Essential Medium, available from Life Technologies, with 10% fetal bovine serum.
The compounds were tested against control compounds WIN 51711, WIN 52084, and WIN 54954, all obtained from Sterling-Winthrop Pharmaceuticals, and control compound Pirodavir, obtained from Janssen Pharmaceuticals.

[2] = Cytotoxicity in mock-infected HI-HeLa cells (antirhinoviral assay, XTT); format: cell-based; details: human; mock-infected HI-HeLa cells; two days; XTT; read-out: CC50
Experimental: as §1, §2

HI-HeLa cells = assay: as above; format: cell-based
Experimental: as §1, §2

[3] = mock-infected HI-HeLa cells, two days, XTT, read-out: CC50

T1 sequence (P03303 1538-1719): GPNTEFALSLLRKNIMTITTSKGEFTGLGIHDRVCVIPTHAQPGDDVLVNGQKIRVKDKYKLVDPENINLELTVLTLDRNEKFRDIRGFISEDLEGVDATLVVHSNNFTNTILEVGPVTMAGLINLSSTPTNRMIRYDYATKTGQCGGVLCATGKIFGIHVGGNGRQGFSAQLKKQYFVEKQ

Row | SMILES | kobs/I ([1]; RVP serotype-14) | pEC50 (HRV-14) | CC50 (HI-HeLa cells) [µM] | also measured
1 | CCOC(=O)/C=C/[C@H](CCC(=O)NC(c1ccccc1)(c1ccccc1)c1ccccc1)NC(=O)[C@H](Cc1ccccc1)NC(=O)[C@H](CC(C)C)NC(=O)OCc1ccccc1 [Compound 2, Ethyl-3-[CBZ-L-Leu-L-Phe-L-(Tr-Gln)]-E-Propenoate] |  |  |  | pKi [1]: 5.18; pEC50 (HRV-14; Rhinovirus B, HRV14, 48 h): 4.00; CC50 at 2 days [2]: > 320 µM
2 | CC(C)C[C@H](NC(=O)OCc1ccccc1)C(=O)N[C@@H](Cc1ccccc1)C(=O)N[C@H](/C=C/C(=O)OC(C)C)CCC(N)=O [Compound 17, Isopropyl-3-(CBZ-L-Leu-L-Phe-L-Gln)-E-Propenoate] |  |  |  | pKi [1]: 5.90; kinact/KI [1]: 6100 M⁻¹ s⁻¹; pEC50 (HRV-14; Rhinovirus B, HRV14, 48 h): 5.74; CC50 at 2 days [2]: > 100 µM
3 | CC(C)C[C@H](NC(=O)OCc1ccccc1)C(=O)N[C@@H](Cc1ccccc1)C(=O)N[C@H](/C=C/C(=O)OC1CCCCC1)CCC(N)=O [Compound 25] |  |  |  | pKi [1]: 5.26; kinact/KI [1]: 3700 M⁻¹ s⁻¹; pEC50 (HRV-14; Rhinovirus B, HRV14, 48 h): 5.51; CC50 at 2 days [2]: > 100 µM
4 | CCOC(=O)/C=C/C(CCC(N)=O)NC(=O)C(Cc1ccc(Cl)cc1)NC(=O)c1cc2c(OC)cccc2n1C(c1ccccc1)(c1ccccc1)c1ccccc1 [Compound 29, Ethyl-3-[N-(1-Tr-4-Methoxyindole-2-Carbonyl)-L-(4-Cl-Phe)-L-Gln]-E-Propenoate] |  |  |  | pEC50 (HRV-14; Rhinovirus B, HRV14, 48 h): 4.57; CC50 at 2 days [2]: 500 µM
5 | COc1cccc2[nH]c(C(=O)NC(Cc3ccc(F)cc3)C(=O)NC(/C=C/C(=O)O)CCC(N)=O)cc12 (centres unmarked) [Compound 45] |  |  |  | pEC50 (HRV-14; Rhinovirus B, HRV14, 48 h): < 4.00; CC50 at 2 days [2]: > 100 µM
6 | CC(=O)OCC=CC(CCC(N)=O)NC(=O)C(Cc1ccccc1)NC(=O)C(CC(C)C)NC(=O)OCc1ccccc1 (centres unmarked) [Compound 76] |  |  |  | pEC50 (HRV-14; Rhinovirus B, HRV14, 48 h): < 3.49; CC50 at 2 days [2]: > 320 µM
7 | CC(C)CC(NC(=O)OCc1ccccc1)C(=O)NC(Cc1ccccc1)C(=O)NC(C=CCOc1ccc(C(F)(F)F)cc1)CCC(N)=O (centres unmarked) [Compound 77] |  |  |  | pEC50 (HRV-14; Rhinovirus B, HRV14, 48 h): < 3.49; CC50 at 2 days [2]: > 320 µM
8 | CCOC(=O)/C=C/[C@H](COC(=O)NC(=O)CCl)NC(=O)[C@H](Cc1ccccc1)NC(=O)[C@H](CC(C)C)NC(=O)OCc1ccccc1 [Compound 122] | 1,252 M-1 sec-1 | 5.75 | 10 | 
9 | CC(C)C[C@H](NC(=O)OCc1ccccc1)C(=O)N[C@@H](Cc1ccccc1)C(=O)N[C@H](/C=C/[N+](=O)[O-])CCC(N)=O [Compound 125] | >500,000 M-1 sec-1 | < 4.00 | 100 | 
10 | CCOC(=O)/C=C/[C@H](CCC(N)=O)NC(=O)[C@H](Cc1ccccc1)NC(=O)[C@H](CC(C)C)NC(=O)c1ccc(C(=O)NC)cc1 [Compound 129] | 230,000 M-1 sec-1 | < 3.49 | > 320 | 
11 | CCOC(=O)/C=C/[C@H](CCC(N)=O)NC(=O)[C@H](Cc1ccc(C(N)=O)cc1)NC(=O)[C@H](CC(C)C)NC(=O)OCc1ccccc1 [Compound 133] | 9,600 M-1 sec-1 | < 3.75 | 177 | 
12 | CCOC(=O)/C=C/[C@H](CCC(N)=O)NC(=O)[C@@H](NC(=O)[C@H](CC(C)C)NC(=O)OCc1ccccc1)C(C)O (some centres unmarked) [Compound 134] | 1,769 M-1 sec-1 | 4.25 | > 320 | 
13 | CCOC(=O)/C=C/[C@H](CCC(N)=O)NC(=O)[C@H](Cc1ccc(OCC)cc1)NC(=O)[C@H](CC(C)C)NC(=O)OCc1ccccc1 [Compound 136] | 4,210 M-1 sec-1 | < 3.49 | > 320 | 
14 | CCOC(=O)/C=C/[C@H](CCC(N)=O)NC(=O)[C@H](Cc1ccc(COC)cc1)NC(=O)[C@H](CC(C)C)NC(=O)OCc1ccccc1 [Compound 140] | 7,122 M-1 sec-1 | 4.41 | > 320 | 
15 | CCOC(=O)/C=C/[C@H](CCC(N)=O)NC(=O)[C@H](CC(C)C)NC(=O)[C@H](CC(C)C)NC(=O)OCc1ccccc1 [Compound 141] | 2,309 M-1 sec-1 | 5.27 | > 320 | 
16 | CCOC(=O)/C=C/[C@H](CCC(N)=O)NC(=O)[C@H](CSC)NC(=O)[C@H](CC(C)C)NC(=O)OCc1ccccc1 [Compound 142] | 2,929 M-1 sec-1 | 5.05 | > 320 | 
17 | CCOC(=O)/C=C/[C@H](CCC(N)=O)NC(=O)[C@H](CSCC)NC(=O)[C@H](CC(C)C)NC(=O)OCc1ccccc1 [Compound 143] | 2,963 M-1 sec-1 | 5.00 | > 320 | 
18 | CC(C)C[C@H](NC(=O)OCc1ccccc1)C(=O)N[C@@H](Cc1ccccc1)C(=O)N[C@H](/C=C/c1ccno1)CCC(N)=O [Compound 150] | 573 M⁻¹ s⁻¹ | < 3.49 |  | CC50 (HI-HeLa cells; [3]): > 320 µM
19 | CC(=O)N1CC/C(=C\[C@H](CCC(N)=O)NC(=O)[C@H](Cc2ccccc2)NC(=O)[C@H](CC(C)C)NC(=O)OCc2ccccc2)C1=O [Compound 164] | 155,500 M-1 sec-1 | 6.15 | > 100 | 
20 | CCOC(=O)/C(C)=C/[C@H](CCC(N)=O)NC(=O)[C@H](Cc1ccccc1)NC(=O)[C@@H](NC(=O)SCC)C(C)(C)C [Compound 168, Ethyl-2-Methyl-3-[Ethylthiocarbonyl-L-α-(t-Butyl-Gly)-L-Phe-L-Gln]-E-Propenoate] | 37,800 M-1 sec-1 | 6.49 | > 100 | 
21 | CCOC(=O)/C(C)=C/[C@H](CCC(N)=O)NC(=O)[C@H](Cc1ccc(C)cc1)NC(=O)[C@@H](NC(=O)SC1CCCC1)C(C)(C)C [Compound 175, Ethyl-2-Methyl-3-[Cyclopentylthiocarbonyl-L-α-(t-Butyl-Gly)-L-(4-Me-Phe)-L-Gln]-E-Propenoate] | 124,000 M-1 sec-1 | 6.74 |  | CC50 (HI-HeLa cells; [3]): > 100 µM
22 | CCOC(=O)/C=C/[C@H](CCC(N)=O)NC(=O)[C@H](Cc1ccc(F)cc1)NC(=O)[C@@H](NC(=O)SC1CCCC1)C(C)(C)C [Compound 176, Ethyl-3-[Cyclopentylthiocarbonyl-L-α-(t-Butyl-Gly)-L-(4-F-Phe)-L-Gln]-E-Propenoate] | 240,000 M-1 sec-1 | 6.85 | > 100 | pKi ([1]; RVP serotype-14, 10 minute preincubation, substrate start, read-out: INHIB (Ki)): 6.32
23 | CCOC(=O)/C(C)=C/[C@H](CCC(N)=O)NC(=O)[C@H](Cc1ccc(F)cc1)NC(=O)[C@@H](NC(=O)SC1CCCC1)C(C)(C)C [Compound 177, Ethyl-2-Methyl-3-[Cyclopentylthiocarbonyl-L-α-(t-Butyl-Gly)-L-(4-F-Phe)-L-Gln]-E-Propenoate] | 80,300 M-1 sec-1 | 6.30 | > 100 | 
24 | CCOC(=O)/C=C/[C@H](CCC(N)=O)NC(=O)[C@H](Cc1ccccc1)NC(=O)[C@@H](NC(=O)SC1CCCC1)C(C)(C)SC [Compound 178, Ethyl-3-[Cyclopentylthiocarbonyl-L-(S-Me-Pen)-L-Phe-L-Gln]-E-Propenoate] | 286,300 M-1 sec-1 | 7.00 | > 100 | 
25 | CC(=O)N1CC/C(=C\[C@H](CCC(N)=O)NC(=O)[C@H](Cc2ccc(F)cc2)NC(=O)[C@H](CSc2ccccc2)NC(=O)SC2CCCC2)C1=O [Compound 181] | 1,000,000 M-1 sec-1 | 7.00 | > 100 | 
26 | CCOC(=O)/C=C/[C@H](CCC(N)=O)NC(=O)[C@H](Cc1ccccc1)NC(=O)[C@H](CC(C)C)NC(=O)SC1CCCC1 [Compound 182] | 114,360 M-1 sec-1 | 6.74 | > 100 | 
27 | CCOC(=O)/C=C/[C@H](CCC(N)=O)NC(=O)[C@H](Cc1ccc(F)cc1)NC(=O)[C@@H](NC(=O)SC1CCCC1)C(C)C [Compound 184] | 59,900 M-1 sec-1 | 6.72 | > 100 | 
28 | CCOC(=O)/C=C/[C@H](CCC(N)=O)NC(=O)[C@H](Cc1ccc(F)cc1)NC(=O)[C@@H](NC(=O)SC1CCCC1)C(C)(C)Sc1ccc([N+](=O)[O-])cc1 [Compound 185] | 600,000 M-1 sec-1 | 6.30 | > 100 | 
